One assay concerns the target T1, EPHA1 (Homo sapiens, UniProt P21709).
T1 sequence (P21709 26-976): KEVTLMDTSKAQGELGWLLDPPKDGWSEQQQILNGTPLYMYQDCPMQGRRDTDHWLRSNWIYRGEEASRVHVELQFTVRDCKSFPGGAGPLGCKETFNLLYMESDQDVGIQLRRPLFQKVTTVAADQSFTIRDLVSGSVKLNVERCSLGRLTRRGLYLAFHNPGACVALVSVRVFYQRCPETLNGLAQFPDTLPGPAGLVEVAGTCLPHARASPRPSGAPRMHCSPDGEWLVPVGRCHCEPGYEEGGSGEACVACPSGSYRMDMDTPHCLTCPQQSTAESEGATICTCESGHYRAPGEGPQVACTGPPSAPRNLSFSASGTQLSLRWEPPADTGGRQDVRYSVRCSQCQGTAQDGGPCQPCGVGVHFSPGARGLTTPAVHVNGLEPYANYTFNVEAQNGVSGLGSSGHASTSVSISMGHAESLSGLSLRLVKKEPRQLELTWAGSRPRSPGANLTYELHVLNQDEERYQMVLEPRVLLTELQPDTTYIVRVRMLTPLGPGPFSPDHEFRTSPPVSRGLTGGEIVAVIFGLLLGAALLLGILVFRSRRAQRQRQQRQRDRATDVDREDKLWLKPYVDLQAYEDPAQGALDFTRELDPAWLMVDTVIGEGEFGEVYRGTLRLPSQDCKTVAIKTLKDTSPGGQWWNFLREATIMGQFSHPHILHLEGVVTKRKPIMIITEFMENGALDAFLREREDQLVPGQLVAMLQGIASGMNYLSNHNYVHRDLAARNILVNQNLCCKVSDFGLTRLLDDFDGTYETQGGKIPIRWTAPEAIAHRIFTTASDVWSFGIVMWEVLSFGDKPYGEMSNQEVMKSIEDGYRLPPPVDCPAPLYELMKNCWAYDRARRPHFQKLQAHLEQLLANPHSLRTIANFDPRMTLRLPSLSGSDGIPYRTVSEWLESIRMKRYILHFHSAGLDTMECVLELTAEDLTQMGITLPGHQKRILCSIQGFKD
Nature of the assay: Large panel kinase profiling. The settings on record: 1 μM test article, 1 mM ATP. Format: biochemical. In short, it runs like this:
(§1)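 Steps: combine kinase, CSox-Sensor substrate, 1 mM ATP and 1 μM compound; seal and incubate at 30° C.; read top fluorescence kinetically each minute, Ex 360 nm/Em 485 nm.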

Another assay addresses T2, MAP4K3/GLK (Homo sapiens, UniProt Q8IVH8).
T2 construct: AssayQuant Technologies, Inc. (service provider)
T2 sequence (Q8IVH8 1-894): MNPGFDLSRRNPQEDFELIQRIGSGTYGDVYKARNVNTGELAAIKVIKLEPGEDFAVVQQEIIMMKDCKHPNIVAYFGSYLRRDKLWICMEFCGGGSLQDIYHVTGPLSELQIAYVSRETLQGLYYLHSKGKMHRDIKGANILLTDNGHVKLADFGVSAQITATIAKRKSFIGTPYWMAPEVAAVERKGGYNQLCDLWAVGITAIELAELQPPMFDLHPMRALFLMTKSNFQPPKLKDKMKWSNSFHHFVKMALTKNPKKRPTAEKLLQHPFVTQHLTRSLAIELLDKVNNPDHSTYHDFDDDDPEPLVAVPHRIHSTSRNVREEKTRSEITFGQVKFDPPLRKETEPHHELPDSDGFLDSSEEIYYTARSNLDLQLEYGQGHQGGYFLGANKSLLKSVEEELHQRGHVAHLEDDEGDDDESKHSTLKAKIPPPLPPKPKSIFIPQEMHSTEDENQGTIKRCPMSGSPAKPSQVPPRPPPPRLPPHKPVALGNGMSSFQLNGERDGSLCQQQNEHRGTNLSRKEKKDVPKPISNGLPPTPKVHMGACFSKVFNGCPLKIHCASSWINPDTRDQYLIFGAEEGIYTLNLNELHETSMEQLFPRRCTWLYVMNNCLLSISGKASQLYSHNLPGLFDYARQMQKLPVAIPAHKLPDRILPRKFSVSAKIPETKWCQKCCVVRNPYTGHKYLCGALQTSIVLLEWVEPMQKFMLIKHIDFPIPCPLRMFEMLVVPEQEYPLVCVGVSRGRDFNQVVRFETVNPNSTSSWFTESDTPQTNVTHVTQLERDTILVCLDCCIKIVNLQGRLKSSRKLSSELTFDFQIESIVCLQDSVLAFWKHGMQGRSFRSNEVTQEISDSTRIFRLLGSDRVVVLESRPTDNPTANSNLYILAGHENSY
Nature of the assay: Large panel kinase profiling. Type of assay: biochemical. The settings on record: 1 μM test article, 1 mM ATP. The essentials:
as §1

`C=CC(=O)N1CCCC(c2c(F)cc(C(N)=O)c3[nH]c4c(c23)CCCCC4)C1` (single isomer, unassigned) [Compound 5-6]: the inhibition (as a rule, the change of the read-out against control, counted positive when it falls) at 1 µM on EPHA1 is 3.7%; against MAP4K3/GLK it was -7.3%.
The like results for `C=CC(=O)N1CCC[C@@H](c2c(F)cc(C(N)=O)c3[nH]c4c(c23)CC2(CC4)CC2)C1` [Compound 6-2, (S)-5-(1-acryloylpiperidin-3-yl)-6-fluoro-1,2,4,9-tetrahydrospiro[carbazole-3,1′-cyclopropane]-8-carboxamide] were, in that order, 22% and 6.2%.
The like results for `C=CC(=O)N1CCC[C@@H](c2c(F)cc(C(N)=O)c3[nH]c4c(c23)CCC4)C1` [Compound 10-2, (S)-8-(1-acryloylpiperidin-3-yl)-7-fluoro-1,2,3,4-tetrahydrocyclo-penta[b]indole-5-carboxamide] were, in that order, 8.5% and 5%.

Values taken from patent US20220009920A1 (GB005, Inc., priority 2020, published 2022).
